These results are taken from ChEMBL document CHEMBL4346703, “Structure Overhaul Affords a Potent Purine PI3Kδ Inhibitor with Improved Tolerability” (J Med Chem, 2019).

The target of series [1] is T1, Phosphatidylinositol 4,5-bisphosphate 3-kinase catalytic subunit delta isoform (Homo sapiens, UniProt O00329).
T1 sequence (O00329 whole entry): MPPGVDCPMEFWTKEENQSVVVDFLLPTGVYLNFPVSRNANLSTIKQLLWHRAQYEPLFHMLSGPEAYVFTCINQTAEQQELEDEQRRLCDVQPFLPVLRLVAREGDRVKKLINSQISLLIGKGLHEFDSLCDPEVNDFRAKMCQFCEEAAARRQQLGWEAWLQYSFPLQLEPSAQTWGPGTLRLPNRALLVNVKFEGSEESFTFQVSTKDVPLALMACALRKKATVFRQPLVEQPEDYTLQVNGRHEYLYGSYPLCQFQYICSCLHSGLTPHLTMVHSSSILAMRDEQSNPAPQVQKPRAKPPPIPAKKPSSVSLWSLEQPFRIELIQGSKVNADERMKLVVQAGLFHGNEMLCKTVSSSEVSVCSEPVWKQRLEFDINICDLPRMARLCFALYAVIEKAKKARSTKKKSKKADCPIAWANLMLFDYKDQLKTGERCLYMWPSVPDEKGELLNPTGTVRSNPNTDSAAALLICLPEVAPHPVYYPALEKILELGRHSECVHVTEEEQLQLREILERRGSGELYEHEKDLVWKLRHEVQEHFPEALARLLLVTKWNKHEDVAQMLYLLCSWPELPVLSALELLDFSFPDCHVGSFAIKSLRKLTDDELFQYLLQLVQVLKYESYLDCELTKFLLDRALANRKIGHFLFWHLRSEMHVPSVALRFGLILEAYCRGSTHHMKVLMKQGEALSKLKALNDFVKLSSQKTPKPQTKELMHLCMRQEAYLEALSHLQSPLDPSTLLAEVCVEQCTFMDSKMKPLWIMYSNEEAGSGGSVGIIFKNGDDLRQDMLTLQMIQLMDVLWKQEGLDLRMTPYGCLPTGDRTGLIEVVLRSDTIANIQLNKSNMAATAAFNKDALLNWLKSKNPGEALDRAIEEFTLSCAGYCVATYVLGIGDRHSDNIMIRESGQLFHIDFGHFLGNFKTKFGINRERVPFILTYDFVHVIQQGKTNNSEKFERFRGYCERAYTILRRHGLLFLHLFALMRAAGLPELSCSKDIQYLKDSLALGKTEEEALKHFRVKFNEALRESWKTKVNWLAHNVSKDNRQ
Briefly: Inhibition of PI3Kdelta in human whole blood assessed as reduction in anti-CD79b antibody-induced CD69 expression preincubated for 60 mins followed by anti-CD79b antibody stimulation and measured after 3 hrs by FACS analysis. Type of series: tissue-based. (In general: In flow cytometry, cells or beads pass a laser one at a time.)

Series [2] has as its target Phosphodiesterase 1 (Homo sapiens, UniProt P54750+Q01064+Q14123). Description: Inhibition of PDE1 (unknown origin). Type of series: protein assay.
For series [3], the target named is Phosphodiesterase 3 (Homo sapiens, UniProt Q14432+Q13370). Description: Inhibition of PDE3 (unknown origin). Type of series: protein assay.
Series [4] deals with cGMP-specific 3',5'-cyclic phosphodiesterase (Homo sapiens, UniProt O76074). Briefly: Inhibition of PDE5 (unknown origin).
Series [5] concerns the target Phosphodiesterase 6. Description: Inhibition of PDE6 (unknown origin). Type of series: protein assay, Homo sapiens.
For series [6], the target named is Phosphodiesterase 7 (Homo sapiens, UniProt Q13946+Q9NP56). Description: Inhibition of PDE7 (unknown origin). Type of series: protein assay.
Series [7] addresses High affinity cGMP-specific 3',5'-cyclic phosphodiesterase 9A (Homo sapiens, UniProt O76083). Briefly: Inhibition of PDE9 (unknown origin).
Series [8] concerns the target Dual 3',5'-cyclic-AMP and -GMP phosphodiesterase 11A (Homo sapiens, UniProt Q9HCR9). Briefly: Inhibition of PDE11 (unknown origin).
Series [9] in a line: Intrinsic clearance in Wistar Han rat at 0.5 mg/kg, iv or 1 mg/kg, po. The conditions noted are these: in vivo. Type of series: ADME, organism-based.
Series [10] in a line: Unbound volume of distribution in Wistar Han rat. The conditions noted are these: in vivo. Type of series: ADME.
The nature of series [11]: Half-life in Beagle dog. The note with it: in vivo. Type of series: ADME, Canis lupus familiaris.
In series [12] the test system is Rattus norvegicus. Briefly: Hemodynamic activity in telemetered rat assessed as effect on heart rate at 60 mg/kg. Type of series: ADME, organism-based. The conditions noted are these: in vivo.
Series [13] is described as follows: fCmax in telemetered rat at 60 mg/kg. Type of series: ADME, organism-based. The note with it: in vivo.
A short description of series [14]: fAUC in rat at 750 mg/kg administered for 4 days. Type of series: ADME, organism-based. The note with it: in vivo, 96 h.
A short description of series [15]: Toxicity in Beagle dog assessed as decrease in basophil count at 25 mg/kg administered for 8 days. Type of series: organism-based, Canis lupus familiaris. The conditions noted are these: in vivo, 192 h.
Series [16] is described as follows: Cardiovascular toxicity in rat assessed as vascular injury at 750 mg/kg for 4 days. Type of series: organism-based. The conditions noted are these: in vivo, 96 h.
Series [17] in a line: Toxicity in Beagle dogs assessed as vascular injury at 25 mg/kg administered for 8 days. Type of series: organism-based, Canis lupus familiaris. The conditions noted are these: dog, in vivo, 192 h.
Series [18] can be described thus: Lipophilicity, log D of the compound. Type of series: physicochemical. The conditions noted are these: octanol/water.
The species named for series [19] is Homo sapiens. Description: Selectivity ratio of IC50 for N-terminal His6-tagged recombinant full length human p110alpha/untagged recombinant full length human p85alpha expressed in baculovirus infected Sf21 insect cells to IC50 for N-terminal His6-tagged recombinant full length human p110delta/untagged recombinant full length human p85alpha expressed in baculovirus infected Sf21 insect cells.

The species named for series [20] is Homo sapiens. Briefly: Selectivity ratio of IC50 for N-terminal His6-tagged recombinant full length human p110beta/untagged recombinant full length human p85alpha expressed in baculovirus infected Sf21 insect cells to N-terminal His6-tagged recombinant full length human p110delta/untagged recombinant full length human p85alpha expressed in baculovirus infected Sf21 insect cells.

Where only a bound is given, the exact number is not on record here.

Chain of Dual 3',5'-cyclic-AMP and -GMP phosphodiesterase 11A (Q9HCR9 whole entry): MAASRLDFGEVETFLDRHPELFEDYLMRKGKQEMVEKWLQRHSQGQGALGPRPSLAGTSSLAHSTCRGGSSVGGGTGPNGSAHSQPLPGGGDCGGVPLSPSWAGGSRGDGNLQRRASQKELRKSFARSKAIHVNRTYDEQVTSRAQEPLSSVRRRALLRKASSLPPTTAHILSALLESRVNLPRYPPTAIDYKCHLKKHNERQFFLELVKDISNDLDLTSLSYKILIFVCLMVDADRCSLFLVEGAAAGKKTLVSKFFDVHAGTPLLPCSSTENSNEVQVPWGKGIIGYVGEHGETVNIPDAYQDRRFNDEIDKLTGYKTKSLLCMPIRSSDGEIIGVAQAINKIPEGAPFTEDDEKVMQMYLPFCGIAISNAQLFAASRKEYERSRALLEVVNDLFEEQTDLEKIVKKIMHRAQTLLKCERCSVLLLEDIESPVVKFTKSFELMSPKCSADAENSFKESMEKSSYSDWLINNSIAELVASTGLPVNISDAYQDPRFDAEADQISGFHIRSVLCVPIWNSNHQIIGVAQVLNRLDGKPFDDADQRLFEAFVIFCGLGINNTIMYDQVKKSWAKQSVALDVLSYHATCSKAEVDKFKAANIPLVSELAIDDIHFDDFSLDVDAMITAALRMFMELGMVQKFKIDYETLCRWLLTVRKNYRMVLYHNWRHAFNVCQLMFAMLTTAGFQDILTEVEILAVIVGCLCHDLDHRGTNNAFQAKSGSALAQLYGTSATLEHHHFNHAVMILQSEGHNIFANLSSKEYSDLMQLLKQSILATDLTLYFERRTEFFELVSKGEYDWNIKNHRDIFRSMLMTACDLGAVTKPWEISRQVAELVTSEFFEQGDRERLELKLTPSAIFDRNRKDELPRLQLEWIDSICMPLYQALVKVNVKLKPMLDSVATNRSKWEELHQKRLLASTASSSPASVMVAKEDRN
Chain of High affinity cGMP-specific 3',5'-cyclic phosphodiesterase 9A (O76083 whole entry): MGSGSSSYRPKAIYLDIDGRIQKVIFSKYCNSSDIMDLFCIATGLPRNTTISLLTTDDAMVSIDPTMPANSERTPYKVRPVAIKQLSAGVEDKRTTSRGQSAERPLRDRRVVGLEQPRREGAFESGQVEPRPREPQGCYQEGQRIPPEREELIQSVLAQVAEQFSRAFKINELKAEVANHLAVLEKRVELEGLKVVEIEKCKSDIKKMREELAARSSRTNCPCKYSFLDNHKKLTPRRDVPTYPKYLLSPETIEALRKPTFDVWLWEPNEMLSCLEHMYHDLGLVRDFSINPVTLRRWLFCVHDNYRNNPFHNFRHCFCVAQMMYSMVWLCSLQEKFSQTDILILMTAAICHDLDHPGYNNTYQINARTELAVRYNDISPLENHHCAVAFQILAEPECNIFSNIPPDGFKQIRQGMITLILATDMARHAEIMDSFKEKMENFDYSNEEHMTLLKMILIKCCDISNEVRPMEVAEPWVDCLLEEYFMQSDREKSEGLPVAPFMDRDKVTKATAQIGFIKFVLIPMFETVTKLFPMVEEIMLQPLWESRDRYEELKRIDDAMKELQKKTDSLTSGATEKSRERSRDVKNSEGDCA

With `CCn1ncc(-c2nc3c(O[C@H]4CCN(C(=O)C5CCOCC5)C4)ncnc3n2C)c1C`, the IC50 in series [1] was 0.36 µM; in series [2] it was above 50 µM; in series [3], above 50 µM; in series [4] it was above 50 µM; in [5], above 50 µM; in [6] it was above 50 µM. For the same compound, the half-inhibitory concentration (IC50) in [7] was above 50 µM; in series [8], above 20 µM. In addition, the CL in [9] was found to be 7.56 L/h/kg. In [10], this compound had a Vdu of 2 L/kg. The same compound gave a half-life in series [11] of 1.5 h. In addition, the Activity result in series [12], in series [15], in series [16] and in [17] was “Non-Toxic” in each case. The fCmax in series [13] came out at 44 µM. For the same compound, the fAUC in series [14] came to 990 µM·h. Also, in series [18], the logD was 1.1. The Ratio IC50 in series [19] was 69; in series [20], 1400.

One may read the IC50 as the concentration that inhibits the measured activity by half. What is called half-life is how long it takes for the measured level to halve. Broadly, the logD is lipophilicity at a set pH, counting ionised and neutral species. Read a high logD as a more lipophilic compound.
